Laboratory results taken from the supplement of paper PMC10307832.

Columns and labels:
Experiment in all cases: relative viability (nuclei count vs DMSO), 5 days (fraction); higher = more cells survive
CX-5461 + Pemetrexed = compound: Cc1cnc(CNC(=O)c2c(=O)c3ccc(N4CCCN(C)CC4)nc3n3c2sc2ccccc23)cn1 [CX-5461] + Nc1nc2[nH]cc(CCc3ccc(C(=O)N[C@@H](CCC(=O)O)C(=O)O)cc3)c2c(=O)[nH]1 [Pemetrexed] (partner 0.2 µM)
Outline: (§1)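 One day after seeding in 1536-well plates, lung cancer cell lines were dosed by pin tool. Dosing was either single-drug or a fixed anchor-drug dose plus five library-drug doses (not always all listed) in √10 steps. After 5 days, nuclei were stained in one fix-and-stain step and counted on 4× images, and relative viability is the nuclei count of treated wells over that of vehicle wells, given as the median of duplicate plates.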

CX-5461 + Luminespib = compound: Cc1cnc(CNC(=O)c2c(=O)c3ccc(N4CCCN(C)CC4)nc3n3c2sc2ccccc23)cn1 [CX-5461] + CCNC(=O)c1noc(-c2cc(C(C)C)c(O)cc2O)c1-c1ccc(CN2CCOCC2)cc1 [Luminespib] (partner 0.01 µM)
Outline: as §1

CX-5461 + Crizotinib = compound: Cc1cnc(CNC(=O)c2c(=O)c3ccc(N4CCCN(C)CC4)nc3n3c2sc2ccccc23)cn1 [CX-5461] + C[C@@H](Oc1cc(-c2cnn(C3CCNCC3)c2)cnc1N)c1c(Cl)ccc(F)c1Cl [Crizotinib] (partner 1 µM)
Outline: as §1

IMD-0354 + OSI-027 = compound: O=C(Nc1cc(C(F)(F)F)cc(C(F)(F)F)c1)c1cc(Cl)ccc1O [IMD-0354] + COc1cccc2cc(-c3nc([C@H]4CC[C@H](C(=O)O)CC4)n4ncnc(N)c34)[nH]c12 [OSI-027] (partner 0.5 µM)
Outline: as §1

Cell Line	relative viability (CX-5461 + Pemetrexed; first compound 0.01 µM)	relative viability (CX-5461 + Pemetrexed; first compound 0.03162 µM)	relative viability (CX-5461 + Pemetrexed; first compound 0.1 µM)	relative viability (CX-5461 + Pemetrexed; first compound 0.3162 µM)	relative viability (CX-5461 + Pemetrexed; first compound 1 µM)	relative viability (CX-5461 + Luminespib; first compound 0.01 µM)	relative viability (CX-5461 + Luminespib; first compound 0.03162 µM)	relative viability (CX-5461 + Luminespib; first compound 0.1 µM)	relative viability (CX-5461 + Luminespib; first compound 0.3162 µM)	relative viability (CX-5461 + Luminespib; first compound 1 µM)	relative viability (CX-5461 + Crizotinib; first compound 0.01 µM)	relative viability (CX-5461 + Crizotinib; first compound 0.03162 µM)	relative viability (CX-5461 + Crizotinib; first compound 0.1 µM)	relative viability (CX-5461 + Crizotinib; first compound 0.3162 µM)	relative viability (CX-5461 + Crizotinib; first compound 1 µM)	relative viability (IMD-0354 + OSI-027; first compound 0.04 µM)	relative viability (IMD-0354 + OSI-027; first compound 0.1265 µM)	relative viability (IMD-0354 + OSI-027; first compound 1.265 µM)	relative viability (IMD-0354 + OSI-027; first compound 4 µM)	relative viability (IMD-0354 + OSI-027; first compound 0.4 µM)
201T	0.324	0.302	0.329	0.318	0.318	1.05	1.04	1.05	1.06	1.11	1.07	1.02	1.02	1.03	1.01	0.596	0.882	0.553	0.175	
A549											0.824	0.804	0.357	0.655	0.0561					
A-427	0.98	0.908	0.927	0.967	0.714	0.965	0.899	0.953		0.721	1.04	1.08	1		0.888	0.66	0.459	0.127	0.135	0.288
ABC-1						0.531	0.691	0.521	0.402	0.303	1.07	1.57		0.57	0.323	0.517	0.331	0.207	0.23	0.369
BEN	0.75	0.742	0.711	0.759	0.556	0.326	0.391	0.289	0.337	0.181	1	0.905	0.912	0.832	0.752	0.306	0.301	0.311	0.195	0.264
CAL-12T	1.29	1.29	1.09	1.1	0.86	0.302	0.534	0.31	1.51	0.24	0.564	0.588		0.653	0.365	0.807	0.463	0.193	0.17	0.385
COR-L23	0.283	0.187	0.207	0.157	0.201	0.641	0.597	0.512	0.547	0.333	0.63	0.797	0.482	0.602	0.256	0.767	0.679	0.145	0.178	0.397
COR-L 105	1.13	0.943	1.03	1.16	0.706	0.839	0.703	0.907	0.667	0.699	1.12	0.992	0.861	0.745	0.325	0.812	0.697	0.363	0.23	0.533
Calu-6											0.861	0.809	0.722	0.723	0.289					
ChaGo-K-1	0.251	0.256	0.243	0.214	0.255	0.595	0.626	0.548	0.668	0.462	1.17	1.21	1.06	0.341	0.79	0.725	0.514	0.269	0.232	0.384
EBC-1											0.174	0.207	0.19	0.215	0.156					
EKVX	0.457	0.394	0.437		0.322	0.868	0.91	0.728	0.843	0.689	1.12	0.997	0.899		0.827	0.771	0.685	0.631	0.19	0.629
EMC-BAC-2	0.435	0.439	0.395	0.443	0.399	1.14	1.27	1.15	1.11	0.756	0.782	0.839	0.725	0.541	0.74	0.403	0.386	0.336	0.3	0.33
EPLC-272H	0.319	0.382	0.367	0.402	0.377	0.324	0.192	0.196		0.356	1.04	1.01	0.941		0.985	0.288	0.281	0.167	0.0714	0.292
H3255	0.608	0.564	0.553	0.557	0.57	0.896	0.859	0.932	0.811	0.941	0.849	0.957	0.883	0.268	0.662	0.549	0.59	0.488	0.302	0.585
HARA	0.204	0.272	0.27	0.208	0.253	0.711	1.15	1.09		0.392	1.16	1.14	0.941	0.206	0.954	0.576	0.542	0.148	0.0924	0.179
HCC-15	0.232	0.232	0.215	0.233	0.204	0.236	0.331	0.305	0.359	0.216	0.884	0.888	0.765	0.766	0.691	0.656	0.615	0.164	0.131	0.366
HCC-44	0.56	0.694	0.644	0.649	0.55	1.11	1.26	0.714	0.834	0.208	0.796	0.832	0.823	0.782	0.801	0.556	0.562	0.285	0.215	0.334
HCC-78	0.896	0.939	0.904	0.907	0.862						0.357	0.36	0.358	0.243	0.328	0.321	0.363	0.296	0.283	0.314
